Source: US20220089638A1, “DITHIOCARBAMATE STAPLED PEPTIDES AND METHODS OF MAKING AND USE THEREOF” (UNIVERSITY OF MARYLAND, BALTIMORE, priority 2019, published 2022)
Where a SMILES comes first, the peptide text is derived from it. Bridges are numbered along the chain shown (N, C = ends). [ ]: non-standard residue; d: D form. S5 = C=CCCC[C@](C)(N)C(=O)O

Legend:
[1] = Comparison of solubility between DTC and hydrocarbon link (OD 600 nm in PBS); format: physicochemical; details: PBS buffer, 2-fold serial dilution from 20 mg/ml, OD at 600 nm
Description: Comparison of Solubility between DTC and Hydrocarbon link. […] OD values were measured at 600 nm on a Biotech Synergy 4 plate reader. PBS was set as blank control.

[2] = Circular dichroism spectroscopy, percent α-helix; format: physicochemical; details: CD spectroscopy
Description: Circular Dichroism (CD) Spectroscopy.

HCT116 p53^−/− = experiment: Cell viability assay (CCK8), HCT116 p53-/-; format: cell-based, human; details: 100 μM
Description: Cell Viability Assay. […] The absorbance at 450 nm was then measured followed by the addition of CCK8 kit, and percent cell viability was calculated on the ratio of the A450 of sample wells versus reference wells.

[3] = tested on: p53, MDM2 and p21 in HCT116 p53^+/+ cells; experiment: Western blot analysis of MDM2, p21 and p53 expression; format: cell-based, human; details: 8 h after treatment, 10, 20, 30 μM
Description: Western Blot Analysis. […] The cells were lysed (20 mM Tris-HCl pH 8.0, 0.8% SDS, 1 mM PMSF, 1 U mL^−1 benzonase nuclease) and the crude lysates were clarified by brief centrifugation and total protein concentration was determined by using the Pierce BCA protein assay. Aliquots containing 5 μg of total protein were run on 4-12% Bis-Tris polyacrylamide gels (Invitrogen).

HCT116 p53^+/+ cells [4] = experiment: Cell apoptosis assay (annexin V-FITC/PI flow cytometry), HCT116 p53+/+; format: cell-based, human; details: 10, 20, or 30 μM
Description: (§1) Cell Apoptosis Assay. […] No treatment controls were established. Culture medium that may contain detached cells was collected, and attached cells were trypsinized. After centrifugation and removal of the supernatants, cells were resuspended in 300 μL of 1×binding buffer which was then added to 5 μL of annexin V-FITC and incubated at room temperature for 15 min. After addition of 10 μL of PI, the cells were incubated at room temperature for another 10 min in the dark. The stained cells were analyzed by a flow cytometer (BD-FACSVerse).

HCT116 p53^−/− cells = experiment: Cell apoptosis assay (annexin V-FITC/PI flow cytometry), HCT116 p53-/-; format: cell-based, human; details: identical treatment conditions, 10, 20, or 30 μM
Description: as §1

HCT116 p53^+/+ cells [5] = experiment: Cellular uptake by confocal microscopy; format: cell-based, human; details: FITC-labeled peptide, 20 μM, 4 h
Description: Cellular uptake of ^DTCPMI. […] Cells were then incubated with 20 μM FITC-^DTCPMI Ctrl. or FITC-^DTCPMI for 4 h. Cells were washed with Dulbecco's phosphate buffered saline, fixed with 4% (wt/vol) paraformaldehyde, finally incubated by DAPI to stain the cell nucleus. Imaged using an LSM 510 Zeiss Axiovert 200M (v4.0) confocal microscope. Images were analyzed using an LSM image browser.

Row | solubility [1] | α-helix (%) ([2]; Table 3) | α-helix (%) ([2]; Table 7) | Compound | cell viability of HCT116 p53-/- cells at high concentration (HCT116 p53^−/−) | induction of p53, MDM2 and p21 (Western blotting) [3] | induction of apoptosis of HCT116 p53+/+ cells (FACS) (HCT116 p53^+/+ cells [4]) | apoptosis of HCT116 p53-/- cells (FACS) (HCT116 p53^−/− cells) | intracellular localization / cellular uptake (confocal microscopy) (HCT116 p53^+/+ cells [5])
1 | ≥ 300 µg/mL |  |  | CC(=O)N[C@H](C(=O)N[C@@H](CO)C(=O)N[C@@H](Cc1ccccc1)C(=O)N[C@@]1(C)CCCC=CCCC[C@@](C)(C(=O)N[C@@H](CC(C)C)C(=O)N[C@@H](CC(C)C)C(=O)N[C@@H](CO)C(=O)N[C@@H](CCCNC(=N)N)C(N)=O)NC(=O)[C@H](Cc2c[nH]c3ccccc23)NC(=O)[C@H](Cc2ccc(O)cc2)NC(=O)[C@H](CCC(N)=O)NC1=O)[C@@H](C)O [^HCPMI] (Ac-TSF[S5]QYW[S5]LLSR-NH2; staple 4-8) |  |  |  |  | 
2 |  | 76% | 62.2% | CC(=O)N[C@H](C(=O)N[C@@H](CO)C(=O)N[C@@H](Cc1ccccc1)C(=O)N[C@H]1CCCCNC(=S)SC[C@@H](C(=O)N[C@@H](CC(C)C)C(=O)N[C@@H](CC(C)C)C(=O)N[C@@H](CO)C(=O)N[C@@H](CCCNC(=N)N)C(N)=O)NC(=O)[C@H](Cc2c[nH]c3ccccc23)NC(=O)[C@H](Cc2ccc(O)cc2)NC(=O)[C@H](CCC(N)=O)NC1=O)[C@@H](C)O [^DTCPMI] | significantly reduced cell viability | dose-dependent induction of p53, MDM2 and p21 | dose-dependent induction of apoptosis | no obvious apoptosis | diffused intracellular localization, demonstrating efficient cellular uptake
